# Experimental data taken from PubChem BioAssay AID179 (DTP/NCI, 2004).
# “And” between values parts separate entries of the source, which are not always exact repeats. Equal values may be shown once. The source made the active and inactive calls.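 How the source made its calls: active means compounds giving half or more protection of infected cells from virus-caused growth loss, again on retest; inactive means the rest.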 Where a SMILES comes first, the peptide text is derived from it.
# System: CEM cells HIV-1 protection, formazan growth assay
# Experiment: NCI AIDS Antiviral Assay
# Conditions: for IC50: measured here: growth of uninfected CEM cells
# Procedure: The ability of compounds to protect human CEM cells from HIV-1 infection is measured as a screen for new compounds capable of inhibiting the HIV virus. Five concentrations of drug were tested on uninfected and infected cells and cell growth was measured using a soluble formazan assay. […] Compounds that provided at least 50% protection were retested. Compounds that provided at least 50% protection on retest were listed as moderately active. Compounds that reproducibly provided 100% protection were listed as confirmed active. […] Note that the inability to provide protection could be due to toxicity.
SMILES,EC50,IC50,outcome
O=C1c2ccccc2C(=O)N1N1CC1Br (centres undefined),> 200 µM,> 200 µM,–
O=S(Cc1ccccc1)/C(=C/NC(=S)Nc1cc(Cl)ccc1Cl)c1ccccc1 (centres undefined),> 200 µM,> 200 µM,–
CC(C)(Oc1ccc(C(=O)c2ccc(Cl)cc2)cc1Cl)C(=O)N1CCN(CCO)CC1,> 200 µM,4.47 µM,–
O=C(O)c1c(O)ccc(O)c1C(=O)Nc1ccc(/C=C/c2ccc(NC(=O)c3c(O)ccc(O)c3C(=O)O)cc2S(=O)(=O)O)c(S(=O)(=O)O)c1,17.8 µM,> 200 µM,–
Cc1c(/C=N/NC(=S)Nc2cccc(Cl)c2)c(=O)n(-c2ccccc2)n1C,> 200 µM,> 200 µM,–
CC(=O)[O-].O=[N+]([O-])c1ccc([O-])c(C=NCCN=Cc2cc([N+](=O)[O-])ccc2[O-])c1.[Mn+3],> 229 µM,4.37 µM,–
COc1cc(C=O)c(-c2cc3c(cc2C2(C)OCCS2)OCO3)c(OC)c1OC (centres undefined),> 44.7 µM,2.51 µM,–
CC[P+](CC)(c1ccccc1)c1ccccc1,> 676 µM,95.5 µM,–
Cc1cccc(C)c1NC(=O)CCc1nnc2s/c(=C\c3ccc(N(C)C)cc3)c(=O)n12,> 1.7 µM,> 1.7 µM,–
N#C/C(=C\c1ccc2c(c1)OCO2)c1ccccc1,> 200 µM,41.7 µM and > 28.8 µM,–
Cc1c2nc3ccccc3sc-2cc(=O)c1C,> 21.4 µM,> 21.4 µM,–
COc1ccc(/C(C)=N/N=C\c2cc(OC)c(OC)c(OC)c2)cc1,> 200 µM,> 200 µM,–
O=C(O)c1ccc([C@@H]2C(=O)N(O)[C@@H]3C=CC[C@@H]32)cc1,> 347 µM,> 347 µM,–
c1ccc(CNC2C(c3ccccc3)=NN(c3ccccc3)C2c2ccccc2)cc1 (centres undefined),> 200 µM,> 200 µM,–
COc1c(-c2ccccc2)oc2c(CP(=O)(OC)OC)cccc2c1=O,> 200 µM,56.2 µM,–
N#CCC(=O)N/N=C(\CCN1CCCC1)CC(c1ccccc1)c1c(O)c2ccccc2oc1=O (centres undefined),> 97.7 µM,55 µM,–
O=C1OC(=O)c2cc3c(cc21)C(=O)O/C3=C\c1ccccc1,–,–,inactive
O=[N+]([O-])c1ccc2[nH]c(=S)[nH]c(=S)c2c1,> 200 µM,–,–
Clc1ccc2nc3nc(-c4ccccc4)c(-c4ccccc4)nc3nc2c1,> 19.5 µM,> 19.5 µM,–
CCOC(=O)c1sc2c(c1OC(=O)c1cc(OC)c(OC)c(OC)c1)c(=O)n(-c1ccccc1)c(=S)n2-c1ccccc1,> 200 µM,4.47 µM,–
O=C(NCCCN(CCCCN(CCCNC(=O)c1cc(S(=O)(=O)O)cc(O)c1O)C(=O)c1cc(S(=O)(=O)O)cc(O)c1O)C(=O)c1cc(S(=O)(=O)O)cc(O)c1O)c1cc(S(=O)(=O)O)cc(O)c1O,> 200 µM,72.4 µM,–
COC1(O)C(=O)c2ccccc2OC1(OC)c1ccc(Cl)cc1 (centres undefined),> 200 µM,4.57 µM,–

SMILES,EC50,IC50,outcome
NC(CCSS(=O)(=O)O)=NCC(c1ccccc1)c1ccccc1,> 123 µM,20 µM,–
CC(=O)NNC(=S)N/C=C\c1nc2ccccc2[nH]c1=O,> 200 µM,> 200 µM,–
O=C1/C(=C/c2ccc(Cl)cc2)CNC/C1=C\c1ccc(Cl)cc1,> 151 µM,10.5 µM and 1.05 µM,–
COC1=C(C2(O)C(=O)N(C)c3ccccc32)C(=O)C(OC)=C(C2(O)C(=O)N(C)c3ccccc32)C1=O (centres undefined),> 53.7 µM,–,–
CCCCNC(C)(C)C(SSSC(C)=O)c1ccco1 (centres undefined),> 200 µM,56.2 µM,–
C=C(CCC(Cl)C(COS(=O)(=O)c1ccc(C)cc1)OC(CCCO[Si](c1ccccc1)(c1ccccc1)C(C)(C)C)OCC)[Si](C)(C)C (centres undefined),> 5.01 µM,> 5.01 µM,–
CCOP(=O)(OCC)/C(C#N)=C/c1cc(OC)ccc1OC,> 398 µM,24 µM,–
CCOC(=O)CSc1[nH]c2nc(C)nc(Cl)c2c1C#N,> 200 µM,> 100 µM,–
O=C(O)C(CP(=O)(O)O)=C(Cl)Cl,> 741 µM,> 741 µM,–
CC1(C)CN=C(Nc2ccc(Cl)cc2)S1,–,–,inactive
CC(C)(C)NC(=O)NC12CC3CC(CC(F)(C3)C1)C2,> 26.9 µM,> 26.9 µM,–
O=c1cc(CCl)nc2c3ncn(C4OC(CO)C(O)C4O)c3ncn12 (centres undefined),–,–,inactive
Nc1nc(N)c2nc(CNc3ccc(C(=O)NC(CCC(=O)O)C(=O)O)cc3F)cnc2n1 (centres undefined),> 200 µM,0.0631 µM,–
O=C(c1ccc(Cl)cc1)c1cc2c([nH]c1=O)CCCCC2,–,–,inactive
COc1nc(C(Cl)(Cl)Cl)c(Cl)c(OC)c1Cl,> 41.7 µM,> 41.7 µM,–
O=c1[nH]c2c(cnn2-c2ccccc2)c(=O)n1O,> 200 µM,> 200 µM,–
CCOc1ccc(NC2=CC(=O)C(=O)c3ccccc32)cc1,> 9.55 µM,> 9.55 µM,–
COC(=O)[C@]12CCC(=O)N1[C@H](C(=O)O)Cc1c2[nH]c2ccccc12,> 200 µM,> 200 µM,–
N#CCc1nc(C#N)c(N)o1,51.3 µM,> 200 µM,–
C=CCn1c(-c2ccc(Cl)cc2)csc1=Nc1ccccc1OC,> 200 µM,> 200 µM,–
CC(C)CC1C(=O)NCCC(NC(=O)C(N)Cc2ccc(O)cc2)C(=O)NC(Cc2ccccc2)C(=O)NC(Cc2ccccc2)NC1=O (centres undefined),> 100 µM,> 100 µM,–
C=C(C(=O)O)C1CC[C@@]2(C)CC(O)CC(=C)C2C1 (some centres undefined),> 200 µM,> 200 µM,–

SMILES,EC50,IC50,outcome
C[C@H]1C[C@H]2[C@@H]3CCC4=CC(=O)C=C[C@]4(C)[C@@]3(F)[C@@H](O)C[C@]2(C)[C@H]1O,–,–,inactive
NC(=O)c1nnn(Cc2ccccc2)c1N,> 200 µM,> 200 µM,–
O=c1cc(-c2ccccc2)oc2cccc(O)c12,> 200 µM,> 200 µM,–
CCCCCCCCOc1ccc(C(=O)c2ccccc2)c(O)c1,> 200 µM,95.5 µM,–
CCCCCCCCCCCC(=O)c1c(O)c2ccccc2oc1=O,> 200 µM,155 µM,–
Cc1ccc2cc(N)c3ccc(C)nc3c2n1.Cc1ccc2cc(N)c3ccc(C)nc3c2n1.O=C1OC(C(O)C[O-])C(O)=C1O.[Cu+],> 12.6 µM,0.55 µM,–
CSC(=S)N(C)c1nc(=[N+](C)C)ss1,–,–,inactive
COc1ccc(/C(=N\NC(=S)NN)C(c2ccc(OC)cc2)C2C(=O)Oc3ccccc32)cc1 (centres undefined),> 75.9 µM,> 75.9 µM,–
COc1ccc(/C=C/c2nc(=S)[nH][nH]2)cc1OC,> 135 µM,110 µM,–
NC(=O)C(N)c1ccccc1 (centres undefined),> 200 µM,> 200 µM,–
Nc1nnc(-c2ccco2)c(-c2ccco2)n1,> 200 µM,186 µM,–
CCOC(=O)C1SC(=Nc2ccc(Cl)cc2C)N=C1C (centres undefined),> 32.4 µM,> 32.4 µM,–
Cc1ccc(S(=O)(=O)CN2C(=O)C(c3ccccc3)(c3ccccc3)C23OC(c2ccc(Cl)cc2)=CC3=O)cc1 (centres undefined),> 200 µM,> 200 µM,–
CN1CC(Br)(Br)C(=O)N(C)C1=O,> 200 µM,3.24 µM,–
CCCCCC/C=C\CCCCCCCCCC1=C(CN2CCN(C)CC2)C(=O)C=C(OC)C1=O,> 200 µM,1 µM,–
O=C([O-])c1ccc([I+]c2ccccc2)cc1,–,–,inactive
O=C1OC(Cc2ccccc2)=C(Cl)C(Cl)(Cc2ccccc2)C1Cl (centres undefined),> 200 µM,5.25 µM,–
COc1cccc(C=O)c1[O-].COc1cccc(C=O)c1[O-].[Co+2],> 186 µM,28.2 µM,–
C#CCOCn1cnc2c(N)ncnc21,> 1230 µM,692 µM,–
Cc1cn(C2CC(N=[N+]=[N-])C(COP(=O)(OCC(=O)c3ccco3)OCC(=O)c3ccco3)O2)c(=O)[nH]c1=O (centres undefined),0.00457 µM,2 µM,–
Cc1ccc2oc3ccccc3c(=O)c2c1,> 24.5 µM,> 24.5 µM,–
COc1cc(OC)c2c(O)c3c(c(-c4ccc5cc6c(c(O)c5c4O)C(=O)CC(C)(O)C6)c2c1)CC(C)OC3C (centres undefined),–,–,inactive

SMILES,EC50,IC50,outcome
c1ccc2c(c1)CC1COc3ccccc3C1O2 (centres undefined),> 200 µM,70.8 µM,–
Cc1nc2ccccc2c(=O)n1NC(=S)Nc1ccc(Cl)cc1[N+](=O)[O-],> 93.3 µM,> 93.3 µM,–
NC1=NN(O)C2=CC([N+](=O)[O-])C=CC2=N1 (centres undefined),> 25.1 µM,20.4 µM,–
CC1(C)C2CCC3=C(CCC4(C)C5C[C@](C)(C(=O)O)CC[C@]5(C)CC[C@]34C)[C@@]2(C)CC[C@@H]1O (some centres undefined),24 µM,81.3 µM,–
Cc1ccc(S(=O)(=O)N/C(=C\C=C\c2ccccc2)C(=O)C(C)(C)C)cc1,38.9 µM,57.5 µM,–
Cc1c(Cl)cccc1N=NC(=O)NNc1cccc(Cl)c1C,> 200 µM,33.1 µM,–
O=c1[nH]cnc2c1ncn2C1CCC2(CO)CC12 (centres undefined),> 50.1 µM,> 50.1 µM,–
COc1ccc(-[n+]2nc(S(=O)(=O)O)c(/C=C/c3ccc(N(C)C)cc3)cc2C#N)cc1,> 151 µM,> 151 µM,–
Cn1c(=O)c(C(c2ccccc2)c2c(O)c3ccccc3n(C)c2=O)c(O)c2ccccc21,> 22.9 µM,> 22.9 µM,–
CC(C)C1=CC2C3C(=O)NC(=O)C3C1C1C3C(=O)NC(=O)C3C21 (centres undefined),> 794 µM,> 794 µM,–
O=C1Cc2cccc(=O)c(O)c2C(=O)O1,> 1200 µM,282 µM,–
COc1cc(C[C@@]2(O)C(=O)OCC2Cc2ccc(OC)c(OC)c2)ccc1O (some centres undefined),> 200 µM,36.3 µM,–
CC1CCC(NC(=O)N(CCCl)N=O)CC1 (centres undefined),> 145 µM,> 145 µM,–
O=C1CC2C(=O)NC(=O)C2C(=O)N1 (centres undefined),> 1380 µM,> 1380 µM,–
Nc1cccc(S(=O)(=O)NCC(=O)O)c1,–,–,inactive
NCCCCC(NC(=O)OCc1ccccc1)C(=O)NCC(N)=O (centres undefined) (HELM PEPTIDE1{[O=C(OCc1ccccc1)[*:2]].[NCCCCC(N[*:1])C(=O)[*:2]].G.[am]}$$$$V2.0),> 200 µM,> 200 µM,–
Cc1[nH]c(=O)[nH]c(=O)c1C(=O)O,> 200 µM,> 200 µM,–
COc1cc2c(cc1OC)C(CC(=O)NN=C(C)C)NCC2 (centres undefined),> 813 µM,> 813 µM,–
CCOC(=O)[C@H](O)[C@@H](O)C(=O)NCc1ccc(C(=O)c2ccccc2)cc1,> 200 µM,> 200 µM,–
